{
  "source": "patent US20190307783A1",
  "about": "“USE OF ANTIVIRALS TO INHIBIT PROTOZOAN VIRUSES” (priority 2016, published 2019)",
  "key": {"[1]": {"system": "LRV1 (LgyLRV1 capsid levels)", "assay": "organism not typed", "conditions": "for LgyLRV1− population in washout, of total cell population / Parasites with LgyLRV1+ capsid levels in washout population: then drug-free media"}, "dsRNA LRV1 genome": {"system": "dsRNA LRV1 genome", "assay": "Quantitative anti-dsRNA slot blots of LRV1 genome", "type": "cell-based, Leishmania RNA virus 1 in Leishmania guyanensis", "conditions": "LgyLRV1+", "protocol": "RNA slot blot analysis was performed as described previously (36)."}, "L. guyanensis (LgyLRV1+)": {"system": "L. guyanensis (LgyLRV1+)", "assay": "Drug-inhibition test: growth of LgyLRV1+ parasites", "type": "cell-based, Leishmania guyanensis"}, "[2]": {"conditions": "animal models; cited from earlier work"}, "[3]": {"system": "LRV1 (LgyLRV1 capsid levels)", "conditions": "from Kuhlmann, 2017; cited from earlier work"}, "LbrLRV1": {"system": "LbrLRV1", "assay": "LRV1 inhibition in L. braziliensis strains bearing LRV1", "type": "cell-based, Leishmania RNA virus 1 in Leishmania braziliensis", "conditions": "Leishmania braziliensis", "procedure": "(§1) For 2CMA, the EC50 was estimated to be ˜3 μM for LRV1 capsid inhibition, versus >100 μM for parasite growth (FIG. 11A), at least 30-fold selective. […] Several studies were carried out with L. braziliensis strains bearing LRV1 (12). The 2CMA EC50 for LbrLRV1 was similar to that seen with LgyLRV1 (˜3 μM); however, parasites were somewhat more susceptible to growth inhibition (EC50 50-100 μM). Because the available quantities of 7d2CMA were limiting and both compounds were similarly selective for L. guyanensis, we focused thereafter on 2CMA.\n(§2) Most studies were performed using luciferase-expressing transfectants of L. guyanensis (MHOM/BR/78/M4147) described previously [LRV1^+ LgyM4147/SSU:IR2SAT-LUC(b)c3 and LRV^−LgyM4147/pX63HYG/SSU:IR2SAT-LUC(b)c4] (54); these lines are termed LgyLRV1^+ and LgyLRV1^−, respectively. Two strains of LRV1^+L. braziliensis were examined: LEM2780 (MHOM/BO/90/CS) and LEM3874 (MHOM/BO/99/IMT252 no. 3) (12). Parasites were grown in Schneider's media (Sigma Aldrich, St. Louis, Mo., USA) prepared according to the supplier's instructions with pH adjusted to 6.5 and supplemented with 0.76 mM hemin, 2 μg/mL biopterin, 50 U/mL penicillin, 50 μg/mL streptomycin, and 10% (vol/vol) heat-inactivated FBS. Cell concentrations were determined using a Coulter Counter ([…], Indianapolis, Ind., USA)."}, "[4]": {"system": "L. braziliensis strains bearing LRV1", "assay": "Growth inhibition of L. braziliensis strains bearing LRV1", "type": "cell-based", "conditions": "Leishmania braziliensis", "procedure": "as §1, §2"}},
  "note": "Where two headings read alike, the source gives them in different places.",
  "data": [
    {"smiles": "C[C@@]1(O)[C@H](O)[C@@H](CO)O[C@H]1n1cnc2c(N)ncnc21", "note": "[2′C-methyadenosine, 2′-C-methyladenosine]", "values": [
      {"measurement": "LgyLRV1− population in washout, of total cell population", "setting": "[1]; 100 μM for four doublings", "value": 50, "unit": "%"},
      {"measurement": "Parasites with LgyLRV1+ capsid levels in washout population", "setting": "[1]; 100 μM for four doublings", "value": 36, "unit": "%"},
      {"measurement": "LgyLRV1− population in washout, of total cell population", "setting": "[1]; 100 μM for three doublings", "value": 31, "unit": "%"},
      {"measurement": "Parasites with LgyLRV1+ capsid levels in washout population", "setting": "[1]; 100 μM for three doublings", "value": 55, "unit": "%"},
      {"measurement": "Fold less LRV1 capsid expression", "setting": "[1]; 100 μM maintained for four cell doublings", "value": 16, "unit": "fold"},
      {"measurement": "Fold less LRV1 capsid expression", "setting": "[1]; 100 μM maintained for three cell doublings", "value": 8, "unit": "fold"},
      {"measurement": "Loss of LRV1 capsid and RNA at every cell doubling", "setting": "[1]; 100 μM, capsid flow cytometry and qRT-PCR", "value": 50, "unit": "%"},
      {"measurement": "EC50", "setting": "[1]; 48 h, read-out: EC50 for 2CMA inhibition of LRV1 in the presence of allopurinol", "value": "~3000", "unit": "nM"},
      {"measurement": "activity at 100 µM", "setting": "[1]; 48 h, read-out: Percent control (LRV1 capsid)", "value": 7, "unit": "%"},
      {"measurement": "Selectivity for LRV1 versus L. guyanensis growth inhibition", "setting": "[1]; EC50 growth vs EC50 LRV1 capsid", "value": "at least 30 fold"},
      {"measurement": "LRV1 capsid (geometric mean FU)", "setting": "[1]; LgyLRV1+, tested at 100 μM, 2 days", "value": 19, "unit": "FU"},
      {"measurement": "EC50", "setting": "[1]; read-out: EC50 for LRV1 capsid inhibition", "value": "~3000", "unit": "nM"},
      {"measurement": "Reduction in LRV1 capsid levels", "setting": "[1]; tested at 100 μM", "value": 12, "unit": "fold"},
      {"measurement": "EC50", "setting": "dsRNA LRV1 genome", "value": "~1000", "unit": "nM"},
      {"measurement": "Population doubling time", "setting": "L. guyanensis (LgyLRV1+); L. guyanensis at 100 μM, untreated 6.4 hours", "value": 8.5, "unit": "h"},
      {"measurement": "activity at 100 µM", "setting": "L. guyanensis (LgyLRV1+); Leishmania guyanensis, 48 h, LgyLRV1+, tested at 100 μM, growth after 2 days, read-out: Percent control (density)", "value": 72, "unit": "%"},
      {"measurement": "EC50", "setting": "L. guyanensis (LgyLRV1+); Leishmania guyanensis, L. guyanensis, relative cellular growth rate, titration, read-out: EC50 for parasite growth", "value": "> 100000", "unit": "nM"},
      {"measurement": "inhibition at 100 µM", "setting": "L. guyanensis (LgyLRV1+); Leishmania guyanensis, tested at 100 μM, read-out: Inhibition of parasite density", "value": 30, "unit": "%"},
      {"measurement": "Density (cells/mL)", "setting": "L. guyanensis (LgyLRV1+); LgyLRV1+, tested at 100 μM, growth after 2 days", "value": "1.22E+7", "unit": "cells/mL"},
      {"measurement": "Serum half-life", "setting": "[2]", "value": 18, "unit": "min"},
      {"measurement": "Concentration that eradicates / completely inhibits LRV1 replication", "setting": "[3]", "value": 10, "unit": "µM"},
      {"measurement": "EC50", "setting": "LbrLRV1", "value": "~3000", "unit": "nM"},
      {"measurement": "EC50", "setting": "[4]", "value": "50000 to 100000", "unit": "nM"}
    ]}
  ]
}
